Here are results for eleven compounds from patent US11413278B2, “Compounds and methods for promoting stress resistance” (priority 2015, dated 2022).

The structures appear in SMILES notation. Read-outs that look alike come from different tables or passages of the source.

For data set [1], the system named is WI-38 cells. As to conditions: read-out: Est. ED50; dose response 0.6-20 μM; H2O2-resistance.
In data set [2] the test system is phosphorylated γH2A.X and TP53BP1. Description: DNA damage marker analysis (immuno-staining). On the procedure: WI-38 cells were seeded on 96-well plates and cultured for 24 hrs and then incubated with small molecules for another 24 hrs. As the positive control to damage DNA, H2O2 was supplemented at 700 μM final concentration for the last 3 hrs. Cells were washed with phosphate-buffered saline (PBS), fixed with 4% paraformaldehyde and then blocked with 5% normal goat serum (Cell Signaling), plus 0.3% Triton X-100, for 1 hr. Primary antibody cocktail (rabbit anti-phospho-histone γH2A.X (Ser-139), 1:100; anti-phospho-TP53BP1 (Ser-1778), 1:100), prepared in 1% BSA and 0.3% Triton X-100/PBS, was then introduced and incubated overnight at 4 C. Next day, samples were washed with PBS and further incubated with fluorophore-conjugated secondary antibody (1:1,000) for 1 hr in the dark. Samples were then washed and incubated with DAPI dye (Life Technologies) (4 μg/ml final concentration) for the last 10 minutes. Images were collected on an INCell Analyzer 2000 (GE) and analyzed with the Developer software.
WI-38 cells were seeded (˜8,000 cells per well) on 96-well plates and cultured for 24 hrs and then incubated with small molecules for another 24 hrs. Doxorubicin (300 nM, 24 hrs) and H2O2 (700 μM, 3 hrs) were also introduced as the positive controls to damage DNA. Cells were washed with phosphate-buffered saline (PBS), fixed with 4% paraformaldehyde for 30 min and then blocked with 5% normal goat serum (Cell Signaling) and 0.3% Triton X-100 for 1 hr. Primary antibody cocktail (Cell Signaling, rabbit anti-phospho-histone γH2A.X (Ser-139), 1:100; anti-phospho-TP53BP1 (Ser-1778), 1:100) was prepared in PBS with 1% BSA and 0.3% Triton X-100 and incubated overnight at 4° C. Next day, samples were washed with PBS and further incubated with fluorophore-conjugated secondary antibody (1:1,000) for 1 hr in dark. Samples were then washed and incubated with DAPI dye (Life Technologies) (4 μg/ml final concentration) for 30 minutes. Images were collected on the INCell Analyzer 2000 (10× objective) and analyzed with the Developer Toolbox.

Data set [3] concerns human dermal fibroblast (HDF) primary cells. The data set is described as follows: H2O2-resistance in primary human dermal fibroblasts. It is filed as cell-based. As to conditions: YES/NO.
In data set [4] the test system is NRF2. The data set is described as follows: qPCR analysis of NRF2-regulated genes. As to conditions: Homo sapiens, 24 h, Assay 12(o), at 10 uM, qPCR. It is filed as cell-based, human. The method, then:
(§1) For qPCR analysis, WI-38 cells were treated with small molecules (at 10 μM) (biological quadruplicates) for 24 hrs and processed for RNA isolation and reverse transcription (RT) with the Cells-to-Ct Kit (Life Technologies), following manufacturer's instructions. RT products were diluted with H2O and used for qPCR analysis on an ABI 7300 system (Life Technologies) (technical triplicates). Relative expression levels of target genes were normalized to the genes B2M, PPIA and GAPDH. To knock down the expression of FOXO3 or NRF2, WI-38 cells were transfected, using the RNAiMAX reagents (Life Technologies), with siRNA oligos (at 10 nM final concentration, 10 ml culture medium) for FOXO3 (Life Technologies) or NRF2 (Integrated DNA Technologies) on 10-cm petri dishes for 36 hrs, and then detached and aliquoted onto 96-well (for qPCR analysis) or 384-well plates (for H2O2-stress treatment). ˜24 hrs later, small molecules were introduced and incubated with cells for 24 hrs. Cells were then either processed with the Cells-to-Ct Kit to prepare RT products for qPCR analysis or subjected to H2O2 (700 μM) for 3 hrs and assayed for viability. The knockdown efficiency of FOXO3 or NRF2 was checked at 36 hrs post-transfection and at the end as well.
(§2) For qPCR analysis, WI-38 cells were treated with small molecules (at 10 μM) (biological quadruplicate) for 24 hrs and processed for RNA isolation and reverse transcription (RT) with the Cells-to-Ct Kit (Life Technologies), following manufacturer's instructions. RT products were diluted with H2O and used for qPCR analysis on a LightCycler 480 system (Roche) (technical triplicates). Relative expression levels of target genes were normalized to the genes B2M, PPIA and GAPDH. To knock down the expression of FOXO3 or NRF2, WI-38 cells were transfected with siRNA oligos (at 10 nM final concentration) for FOXO3 (Life Technologies) or NRF2 on 10-cm petri dish for 36 hrs, and then detached and aliquoted onto 96-well plates. ˜24 hrs later, small molecules were introduced and incubated with cells for 24 hrs. Cells were then processed with the Cells-to-Ct Kit to prepare RT products for qPCR analysis. The knockdown efficiency of FOXO3 or NRF2 was checked at 36 hrs post-transfection and at the end as well.
NRF2/SKN-1, the oxidative stress and xenobiotic phase 2 detoxification protein, can extend animal lifespan (Sykiotis and Bohmann, 2008; Tullet et al., 2008). Applicants analyzed these small molecules for their ability to increase the expression of NRF2-regulated genes, including HMOX1 (heme oxygenase (decycling) 1; anti-oxidant), NQO1 (NAD(P)H dehydrogenase, quinone 1; phase 2 detoxification enzyme), GCLC (glutamate-cysteine ligase, catalytic) and GSTM1 (glutathionine S transferase) (Hur and Gray, 2011; Suzuki et al., 2013).

Data set [5] concerns FOXO3. The data set is described as follows: qPCR analysis of FOXO3-regulated genes. The data set is classed as cell-based, human. Particulars: Homo sapiens, 24 h, Assay 10(m), at 10 uM, qPCR. The method, then:
as §1, §2
Many perturbations that increase lifespan and stress resistance in animals do so in a FOXO-dependent fashion (Kenyon, 2010c). Humans have several FOXO genes, but FOXO3, which promotes stress resistance in mammalian cell culture (Kops et al., 2002; Nemoto and Finkel, 2002; Tran et al., 2003), is the one that has been linked to exceptional longevity in humans (Anselmi et al., 2009; Flachsbart et al., 2009; Li et al., 2009; Pawlikowska et al., 2009; Soerensen et al., 2010; Willcox et al., 2008). FOXO1, in contrast, appears to be responsible for some symptoms of diabetes in mouse models (Cheng and White, 2011). For this reason, applicants have focused on analyzing potential ability of our small molecules to activate FOXO3. […] Another 4 molecules (Gr-7A, Gr-7C, O12 and O23) could induce robust expression (greater than 1.5-fold) of at least 2 FOXO3 target genes.

The subject of data set [6] is NRF2. The data set is described as follows: in vitro. The data set is classed as cell-based, human. As to conditions: 10 uM; YES/NO. On the procedure: as §1, §2
Of these, O15 and O20 consistently (in 3 of 3 experiments) required NRF2 to promote H2O2-resistance, and their resistance capacities were reduced by ˜90% on average upon NRF2 knockdown under conditions tested.

Data set [7] has as its system C. elegans. The data set is described as follows: C. elegans lifespan assays (liquid and plate). Particulars: Caenorhabditis elegans, at 66 uM. It is filed as in vivo, Caenorhabditis elegans.
Data set [8] concerns WI-38 cells. The data set is described as follows: Long-term effects on cell viability (5 days, ATP; morphology, PI imaging).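 On Luminescence signal for ATP measurement, day-2 Average: compounds at 10 µM with ATP read daily over 5 days of treatment.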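 On Luminescence signal for ATP measurement, day-3 Average: compounds at 10 µM with ATP read daily over 5 days of treatment.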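 On Luminescence signal for ATP measurement, day-4 Average: compounds at 10 µM with ATP read daily over 5 days of treatment.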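 On Luminescence signal for ATP measurement, day-5 Average: compounds at 10 µM with ATP read daily over 5 days of treatment.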 It is filed as cell-based. Particulars: 10 μM; for Luminescence signal for ATP measurement, day-1 Average / Luminescence signal for ATP measurement, day-2 Average / Luminescence signal for ATP measurement, day-3 Average / Luminescence signal for ATP measurement, day-4 Average / Luminescence signal for ATP measurement, day-5 Average: n = 6; for ATP luminescence by day-5 normalized: DMSO ctrl = 100.0%. On the procedure:
In addition, cell death was scored by PI-imaging on day 2 and day 5 of treatment.
Applicants introduced molecules (at 10 uM final concentration) to WI-38 fibroblasts and then assayed cell viability (through ATP measurement) everyday, during a course of 5 days of continuous treatment. […] Applicants also examined the morphology and scored cell death (propidium iodide staining) for cells treated with the above molecules. Of these 14 molecules, some appeared to cause cell toxicity. […] Despite the observed long-term toxicity, these molecules are still interesting as they may act as anti-tumor agents in vivo, should they have more pronounced cytotoxicity on highly proliferative tumor cells. When cells were incubated with these molecules for ˜24 hrs and then subject to hydrogen peroxide for 3 hrs, these molecules are all protective. […] Some of these small molecules may be toxic by themselves under certain conditions, but by inducing protective mechanisms, they may trigger “hormesis” and therefore protect cells from oxidative stress.

Where [9] appears, read: read-out: Induction of NRF2-regulated genes: NQO1 normalized fold-change.
The mark [10] stands for this setting: read-out: Induction of FOXO3-regulated genes: GADD45A normalized fold-change.
The mark [11] stands for this setting: Batch 1, day-0 luminescence = 320956 ± 24708.
[12] abbreviates: Batch 2, day-0 luminescence = 229312 ± 17487.

For the compound `Cc1ccc(C(=O)Nc2ccc3ccc4cccnc4c3n2)cc1` [Gr-3D], in data set [1], the EC50 is 4.96 µM.

For `OO` [H2O2, hydrogen peroxide, reference compound], in data set [2], the TP53BP1-positive cells was ~45.8±5.1% and the γH2A.X-positive cells was ~50.9±4.2%.

On to `COCCCN1Cc2cccc(C(N)=O)c2C1=O` [O2], for which the EC50 in data set [1] amounted to 20 µM.

For `O=C(CC1(O)C(=O)Nc2ccc(Br)cc21)c1ccc(Cl)cc1` (stereo not shown) [O19], the EC50 in data set [1] came out at 20 µM. The “Assay 6: H2O2-resistant, at 10 uM, human dermal fibroblast (HDF) primary cells” value in data set [3] was “YES”. In addition, the values for the fold induction at 10 µM in data set [4] (setting [9]) and in data set [5] (setting [10]) were 1.91 and 0.84, respectively.

Take `O=C(O)c1cc(Cl)c(Cl)cc1C(=O)Nc1ccccc1` [O25]: the EC50 in data set [1] turned out to be 8.5 µM. In addition, the “Assay 6: H2O2-resistant, at 10 uM, human dermal fibroblast (HDF) primary cells” value in data set [3] was “YES”.

Consider `Oc1cc(-c2ccccc2)nc2c(-c3ccc(Cl)cc3)c(Cc3ccccc3)nn12` [O26], for which, in data set [1], the EC50 came out at 20 µM. The “Assay 17: NRF2-dependency for H2O2-resistance” value in data set [6] is recorded as “YES”. The ILS at 66 µM amounted to 23.9% in data set [7] (Assay 2(z), 1.0 × 10^9 bacteria/ml, wild type + FuDR (2012 July), read-out: Lifespan assay in liquid); 4.6% in data set [7] (Assay 3(aa), 2.5 × 10^9 bacteria/ml, wild type + FuDR, read-out: Lifespan assay in liquid); 27.1% in data set [7] (Assay 4(ab), 2.0 × 10^10 bacteria/ml, CF512 worms, no FuDR, read-out: Lifespan assay on plates); 8.3% in data set [7] (Assay 5(ac), 1.0 × 10^11 bacteria/ml, CF512 worms, no FuDR, read-out: Lifespan assay on plates). Further, the fold induction at 10 µM was determined as 0.85 in data set [4] (read-out: Induction of NRF2-regulated genes: GSTM1 normalized fold-change); 0.44 in data set [4] (setting [9]); 3.36 in data set [5] (setting [10]); 2.21 in data set [5] (read-out: Induction of FOXO3-regulated genes: SESN1 normalized fold-change); 1.16 in data set [5] (read-out: Induction of FOXO3-regulated genes: TXNIP normalized fold-change).

In the case of `Cc1cc(C)n(-c2nc(O)cc(-c3ccccc3)n2)n1` [O28], the EC50 in data set [1] amounted to 5.4 µM.

For the compound `CCCCCCc1cc(C=O)c(O)cc1O` [O29], in data set [1], the EC50 came to 15.3 µM.

Take `CC(C)CCOc1ccc(C(=O)C(CN2CCOCC2)c2ccccc2)cc1` (stereo not shown) [O30]: the EC50 in data set [1] was 4.2 µM.

Take `Nc1c(Cl)ncnc1NCCCn1ccnc1` [O31]: the EC50 in data set [1] amounted to 10.6 µM.

Take `CO[C@H]1C[C@@H]2CC[C@@H](C)[C@@](O)(O2)C(=O)C(=O)N2CCCC[C@H]2C(=O)O[C@H]([C@H](C)C[C@@H]2CC[C@@H](O)[C@H](OC)C2)CC(=O)[C@H](C)/C=C(\C)[C@@H](O)[C@@H](OC)C(=O)[C@H](C)C[C@H](C)/C=C/C=C/C=C/1C` [Rapa]: in data set [8] (setting [11]), the “Luminescence signal for ATP measurement, day-1 Average” value came out at 454546; the “Luminescence signal for ATP measurement, day-2 Average” value is listed as 519403; the “Luminescence signal for ATP measurement, day-3 Average” value came to 545026; the “Luminescence signal for ATP measurement, day-4 Average” value was 552160. For the same compound, the “Luminescence signal for ATP measurement, day-5 Average” value in data set [8] (setting [11]) was found to be 547771. Also, the “ATP luminescence by day-5 normalized” value in data set [8] (Batch 1) was 53.3%. In data set [8] (setting [12]), the “Luminescence signal for ATP measurement, day-1 Average” value is on record as 239521; the “Luminescence signal for ATP measurement, day-2 Average” value came out at 221640; the “Luminescence signal for ATP measurement, day-3 Average” value is given as 244073; the “Luminescence signal for ATP measurement, day-4 Average” value is recorded as 276911. Besides, the “Luminescence signal for ATP measurement, day-5 Average” value in data set [8] (setting [12]) is given as 262898. In addition, the “ATP luminescence by day-5 normalized” value in data set [8] (Batch 2) is 47.3%.
